The source of these data is patent US20100221445A1, “O-DESMETHYLVENLAFAXINE AND BAZEDOXIFENE COMBINATION PRODUCT AND USES THEREOF” (Wyeth LLC, priority 2005, published 2010).

The nature of series [1]: Storage stability of DVS/Bazedoxifene bilayered tablets (strength, % recovery). The settings on record: 25/60 and 40/75 for 3 months. The method, then: 80 DVS/Bazedoxifene bilayered tablets (150 mg/40 mg respectively) were stored at 25° C./60 relative humidity (RH) and 40° C./75 RH in a 50-mL high density polyethylene (HDPE) closed container for 2 weeks, 1 month and 3 months. The strengths of each active constituents and the dissolution rate in 0.2% Tween 80/10 mM Acetic acid at 37° C. were monitored.

In series [2] the test system is reuptake of serotonin and norepinephrine. Particulars: cited from earlier work.
Series [3] relates to bone loss and cholesterol. Particulars: ovariectomized rat model of osteopenia; cited from earlier work.
Series [4] has as its system MCF-7 cell line (human breast cancer cell line). The settings on record: MCF-7 human breast cancer cell line; cited from earlier work.
The subject of a further series is uterine response. The settings on record: preclinical models of uterine stimulation; cited from earlier work.
A short description of series [5]: Dissolution of bilayer tablets in 0.2% Tween 80/10 mM Acetic acid at 37° C. The class given is physicochemical.

Take `CN(C)CC(c1ccc(O)cc1)C1(O)CCCCC1` (stereo not shown) [ODV, 1-[2-(dimethylamino)-1-(4-phenol)ethyl]-cyclohexanol]: the “Stability on storage (in words)” value in series [1] is listed as “stable”. Further, the “Blockade of reuptake of serotonin and norepinephrine” value in series [2] is recorded as “selectively blocks”.
Take `Cc1c(-c2ccc(O)cc2)n(Cc2ccc(OCCN3CCCCCC3)cc2)c2ccc(O)cc12` [BZA, 1-[4-(2-azepan-1-yl-ethoxy)-benzyl]-2-(4-hydroxy-phenyl)-3-methyl-1H-indol-5-ol acetic acid]: the “Effect in preventing bone loss and reducing cholesterol” value in series [3] was “estrogen agonist-like effect”. In addition, the “Behaviour in MCF-7 cell line” value in series [4] is listed as “estrogen antagonist”. In the series on uterine response, the “Stimulation of uterine response” value is on record as “little or no stimulation”.
With `CN(C)CC(c1ccc(O)cc1)C1(O)CCCCC1` (stereo not shown) [DVS], the results for the “Release (in words)” value in series [5] (first 2 hours) and in series [5] (in 24 hours) were “slow release” and “complete release”, respectively.
